Results published in article PMC9516332 (Frontiers in Oncology, 2022).
Where two headings read alike, the source gives them in different places.

Key:
AP-1060 (ETV6-NTRK3) = experiment: Cell viability assay; settings: read-out: IC50 in cell proliferation assay
134 cancer cell lines = experiment: Cell viability assay (ATPlite, 72 hours), IC50 on cancer cell line panel

CC(C)(C)c1nc(-c2cccc(NS(=O)(=O)c3c(F)cccc3F)c2F)c(-c2ccnc(N)n2)s1 [dabrafenib]
IC50 (AP-1060 (ETV6-NTRK3)): 2.52 µM | IC50 (134 cancer cell lines; HEC-6, read-out: IC50 in cell proliferation assay, HEC-6 cell line (EGFR p.A289V)): > 10 µM | IC50 (134 cancer cell lines; Homo sapiens, 769-P, read-out: IC50 in cell proliferation assay, cell line 769-P): 1.05 µM | IC50 (134 cancer cell lines; Homo sapiens, 786-0, read-out: IC50 in cell proliferation assay, cell line 786-O): 1.69 µM | IC50 (134 cancer cell lines; Homo sapiens, A 172, read-out: IC50 in cell proliferation assay, cell line A-172): > 10 µM | IC50 (134 cancer cell lines; Homo sapiens, A204, read-out: IC50 in cell proliferation assay, cell line A-204): 2 µM | IC50 (134 cancer cell lines; Homo sapiens, A498, read-out: IC50 in cell proliferation assay, cell line A-498): 0.75 µM | IC50 (134 cancer cell lines; Homo sapiens, A549, read-out: IC50 in cell proliferation assay, cell line A-549): 2.65 µM | IC50 (134 cancer cell lines; Homo sapiens, A704, read-out: IC50 in cell proliferation assay, cell line A-704): 0.822 µM | IC50 (134 cancer cell lines; Homo sapiens, A-375, read-out: IC50 in cell proliferation assay, cell line A-375 (BRAF p.V600E)): 0.071 µM | IC50 (134 cancer cell lines; Homo sapiens, A-427, read-out: IC50 in cell proliferation assay, cell line A-427): 2.24 µM | IC50 (134 cancer cell lines; Homo sapiens, ACHN, read-out: IC50 in cell proliferation assay, cell line ACHN): 0.598 µM | IC50 (134 cancer cell lines; Homo sapiens, AN3-CA, read-out: IC50 in cell proliferation assay, cell line AN3-CA (FGFR2 p.N549K)): 2.62 µM | IC50 (134 cancer cell lines; Homo sapiens, ASPC1, read-out: IC50 in cell proliferation assay, cell line AsPC-1): > 10 µM | IC50 (134 cancer cell lines; Homo sapiens, AU565, read-out: IC50 in cell proliferation assay, cell line AU565 (ERBB2 amplification)): 0.981 µM | IC50 (134 cancer cell lines; Homo sapiens, BT-20, read-out: IC50 in cell proliferation assay, cell line BT-20): > 10 µM | IC50 (134 cancer cell lines; Homo sapiens, BT-474, read-out: IC50 in cell proliferation assay, cell line BT-474 (ERBB2 amplification)): > 10 µM | IC50 (134 cancer cell lines; Homo sapiens, BT-549, read-out: IC50 in cell proliferation assay, cell line BT-549): 1.53 µM | IC50 (134 cancer cell lines; Homo sapiens, BXPC-3, read-out: IC50 in cell proliferation assay, cell line BxPC-3): 0.681 µM | IC50 (134 cancer cell lines; Homo sapiens, C-33-A, read-out: IC50 in cell proliferation assay, cell line C-33 A): > 10 µM | IC50 (134 cancer cell lines; Homo sapiens, CAL-27, read-out: IC50 in cell proliferation assay, cell line CAL-27): > 10 µM | IC50 (134 cancer cell lines; Homo sapiens, CCF-STTG1, read-out: IC50 in cell proliferation assay, cell line CCF-STTG1): > 10 µM | IC50 (134 cancer cell lines; Homo sapiens, CCRF-CEM, read-out: IC50 in cell proliferation assay, cell line CCRF-CEM): 1.59 µM | IC50 (134 cancer cell lines; Homo sapiens, COLO 205, read-out: IC50 in cell proliferation assay, cell line COLO 205 (BRAF p.V600E)): 0.017 µM | IC50 (134 cancer cell lines; Homo sapiens, COLO-829, read-out: IC50 in cell proliferation assay, cell line COLO 829 (BRAF p.V600E)): 0.044 µM | IC50 (134 cancer cell lines; Homo sapiens, DLD-1, read-out: IC50 in cell proliferation assay, cell line DLD-1): 1.07 µM | IC50 (134 cancer cell lines; Homo sapiens, DU-4475, read-out: IC50 in cell proliferation assay, cell line DU4475 (BRAF p.V600E)): 0.055 µM | IC50 (134 cancer cell lines; Homo sapiens, Daoy, read-out: IC50 in cell proliferation assay, cell line Daoy): 0.919 µM | IC50 (134 cancer cell lines; Homo sapiens, DoTc2-4510, read-out: IC50 in cell proliferation assay, cell line DoTc2 4510): > 10 µM | IC50 (134 cancer cell lines; Homo sapiens, EOL1, read-out: IC50 in cell proliferation assay, cell line EoL-1 (FIP1L1-PDGFRA)): 2.68 µM | IC50 (134 cancer cell lines; Homo sapiens, FaDu, read-out: IC50 in cell proliferation assay, cell line FaDu): 2.63 µM | IC50 (134 cancer cell lines; Homo sapiens, G-361, read-out: IC50 in cell proliferation assay, cell line G-361 (BRAF p.V600E)): 0.047 µM | IC50 (134 cancer cell lines; Homo sapiens, HCC827, read-out: IC50 in cell proliferation assay, cell line HCC827 (EGFR exon19del)): 1.27 µM | IC50 (134 cancer cell lines; Homo sapiens, HCC4006, read-out: IC50 in cell proliferation assay, cell line HCC4006 (EGFR exon19del)): > 10 µM | IC50 (134 cancer cell lines; Homo sapiens, HCT-15, read-out: IC50 in cell proliferation assay, cell line HCT 15): 1.52 µM | IC50 (134 cancer cell lines; Homo sapiens, HCT-116, read-out: IC50 in cell proliferation assay, cell line HCT 116): 1.11 µM | IC50 (134 cancer cell lines; Homo sapiens, HEC-1, read-out: IC50 in cell proliferation assay, HEC-1 cell line): 1.26 µM | IC50 (134 cancer cell lines; Homo sapiens, HEC-1B, read-out: IC50 in cell proliferation assay, HEC-1-B cell line (EGFR p.A864V)): > 10 µM | IC50 (134 cancer cell lines; Homo sapiens, HL-60, read-out: IC50 in cell proliferation assay, HL-60 cell line): > 10 µM | IC50 (134 cancer cell lines; Homo sapiens, HT, read-out: IC50 in cell proliferation assay, HT cell line): > 10 µM | IC50 (134 cancer cell lines; Homo sapiens, HT-1080, read-out: IC50 in cell proliferation assay, HT-1080 cell line): 0.971 µM | IC50 (134 cancer cell lines; Homo sapiens, Hs746T, read-out: IC50 in cell proliferation assay, Hs 746.T cell line (MET exon14skip + amplification)): > 10 µM | IC50 (134 cancer cell lines; Homo sapiens, Hs-578T, read-out: IC50 in cell proliferation assay, Hs 578T cell line): 1.11 µM | IC50 (134 cancer cell lines; Homo sapiens, HuTu80, read-out: IC50 in cell proliferation assay, HuTu 80 cell line): 2.99 µM | IC50 (134 cancer cell lines; Homo sapiens, J82, read-out: IC50 in cell proliferation assay, J82 cell line): > 10 µM | IC50 (134 cancer cell lines; Homo sapiens, Jurkat E6.1, read-out: IC50 in cell proliferation assay, Jurkat E6.1 cell line): 1.3 µM | IC50 (134 cancer cell lines; Homo sapiens, K562, read-out: IC50 in cell proliferation assay, K-562 cell line): > 10 µM | IC50 (134 cancer cell lines; Homo sapiens, KATO III, read-out: IC50 in cell proliferation assay, KATO III cell line (FGFR2 amplification)): 1.77 µM | IC50 (134 cancer cell lines; Homo sapiens, KG-1, read-out: IC50 in cell proliferation assay, KG-1 cell line (FGFR1OP2-FGFR1)): 1.21 µM | IC50 (134 cancer cell lines; Homo sapiens, KLE, read-out: IC50 in cell proliferation assay, KLE cell line): 1.56 µM | IC50 (134 cancer cell lines; Homo sapiens, KMS-11, read-out: IC50 in cell proliferation assay, KMS-11 cell line (FGFR3 p.Y373C)): > 10 µM | IC50 (134 cancer cell lines; Homo sapiens, KU812, read-out: IC50 in cell proliferation assay, Ku812 cell line): 8.65 µM | IC50 (134 cancer cell lines; Homo sapiens, Kasumi 1, read-out: IC50 in cell proliferation assay, Kasumi-1 cell line (KIT p.N822K)): 9.05 µM | IC50 (134 cancer cell lines; Homo sapiens, LC-2-ad, read-out: IC50 in cell proliferation assay, LC-2/ad cell line (CCDC6-RET)): 2.07 µM | IC50 (134 cancer cell lines; Homo sapiens, LNCaP-Clone-FGC, read-out: IC50 in cell proliferation assay, LNCaP clone FGC cell line): 2.73 µM | IC50 (134 cancer cell lines; Homo sapiens, LS174T, read-out: IC50 in cell proliferation assay, LS174T cell line): > 10 µM | IC50 (134 cancer cell lines; Homo sapiens, LS-411N, read-out: IC50 in cell proliferation assay, LS411N cell line (BRAF p.V600E)): 0.022 µM | IC50 (134 cancer cell lines; Homo sapiens, LoVo, read-out: IC50 in cell proliferation assay, LoVo cell line): 4.36 µM | IC50 (134 cancer cell lines; Homo sapiens, MCF7, read-out: IC50 in cell proliferation assay, MCF-7 cell line): > 10 µM | IC50 (134 cancer cell lines; Homo sapiens, MDA-MB-231, read-out: IC50 in cell proliferation assay, MDA-MB-231 cell line): > 10 µM | IC50 (134 cancer cell lines; Homo sapiens, MDA-MB-453, read-out: IC50 in cell proliferation assay, MDA-MB-453 cell line): > 10 µM | IC50 (134 cancer cell lines; Homo sapiens, MDA-MB-468, read-out: IC50 in cell proliferation assay, MDA-MB-468 cell line): > 10 µM | IC50 (134 cancer cell lines; Homo sapiens, MG-63, read-out: IC50 in cell proliferation assay, MG-63 cell line): > 10 µM | IC50 (134 cancer cell lines; Homo sapiens, MIA PaCa-2, read-out: IC50 in cell proliferation assay, MIA PaCa-2 cell line): > 10 µM | IC50 (134 cancer cell lines; Homo sapiens, MKN-45, read-out: IC50 in cell proliferation assay, MKN45 cell line (MET amplification)): > 10 µM | IC50 (134 cancer cell lines; Homo sapiens, MOLM-13, read-out: IC50 in cell proliferation assay, MOLM-13 cell line (FLT3 ITD)): 5.7 µM
